Laboratory results: the supplement of paper PMC10883282
± gives the standard deviation of the averaged measurements.

System: SK-ES-1
Assay: relative viability vs DMSO control (72 h) (fraction); higher = more viable cells
Method in brief: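 ATPLite readings, expressed as percent growth and averaged over up to triplicate wells, provided relative viability. Before reading, sarcoma cell lines seeded in 384-well plates to reach 80–90% confluence received 2.5 µl of serially diluted compound after 24 h, from source plates of 10 mM to 0.0002 mM. Plates were held 72 h at 37 °C, 5% CO2, with 0.1% DMSO as vehicle and a 5 µM positive control. The data were rescaled to 1 for full and 0 for none.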

Structure (SMILES) | relative viability (0.00017 µM) | relative viability (0.00051 µM) | relative viability (0.00152 µM) | relative viability (0.00457 µM) | relative viability (0.01372 µM) | relative viability (0.04115 µM) | relative viability (0.1235 µM) | relative viability (0.3704 µM) | relative viability (1.111 µM) | relative viability (3.333 µM) | relative viability (10 µM)
COc1cc2nccc(Oc3ccc(NC(=O)Nc4cc(C)on4)c(Cl)c3)c2cc1OC [Tivozanib] | 1.02 ± 0.058 | 1.02 ± 0.019 | 1.03 ± 0.065 | 1.04 ± 0.028 | 1.11 ± 0.021 | 1.07 ± 0.021 | 1.08 ± 0.06 | 1.08 ± 0.023 | 1.06 ± 0.041 | 0.973 ± 0.035 | 0.518 ± 0.018
C[C@]1(O)C[C@@H](c2nc(-c3ccc4ccc(-c5ccccc5)nc4c3)c3c(N)nccn32)C1 [Linsitinib] | 1.05 ± 0.039 | 1.05 ± 0.034 | 1.08 ± 0.019 | 1.07 ± 0.051 | 1.03 ± 0.067 | 0.967 ± 0.038 | 0.75 ± 0.026 | 0.479 ± 0.042 | 0.341 ± 0.013 | 0.308 ± 0.013 | 0.21 ± 0.0051
C=CC(=O)Nc1cccc(Oc2nc(Nc3ccc(N4CCN(C)CC4)cc3)nc3ccsc23)c1 [Olmutinib] | 0.979 ± 0.049 | 1.029 ± 0.0089 | 0.999 ± 0.047 | 1.03 ± 0.028 | 1.03 ± 0.036 | 1.018 ± 0.0064 | 1.05 ± 0.022 | 1.05 ± 0.051 | 0.996 ± 0.059 | 0.921 ± 0.011 | 0.339 ± 0.041
O=C(Nc1cnn2ccc(N3CCC[C@@H]3c3cc(F)ccc3F)nc12)N1CC[C@H](O)C1 [Larotrectinib] | 1.01 ± 0.018 | 1.04 ± 0.048 | 1.04 ± 0.026 | 1.04 ± 0.064 | 1.04 ± 0.038 | 1.03 ± 0.053 | 1 ± 0.02 | 1.02 ± 0.062 | 1 ± 0.03 | 0.969 ± 0.034 | 1.03 ± 0.058
